In PMC6401476, “The Evolution of SlyA/RovA Transcription Factors from Repressors to Countersilencers in Enterobacteriaceae” (mBio, 2019):

Tests used:
[1] = molecular target: T1, SlyA (Salmonella enterica, UniProt P40676); experiment: intrinsic tryptophan fluorescence quenching; 1H, […]-TROSY NMR; assay type: binding
T1 construct: His-SlyA (N-terminal 6×His-tagged)

[2] = molecular target: T1, SlyA; experiment: crystal structure at […] Å; 1H, […]-TROSY NMR; supported by in vitro transcription; assay type: binding
[3] = molecular target: the molecule itself; experiment: crystal structure; His-SlyA co-crystallised with 75 mM sodium salicylate; sitting-drop vapor diffusion, room temperature; 20% PEG 400, 10% glycerol, 0.1 M phosphate-citrate buffer pH 4.2, 0.2 M ammonium sulfate; space group P21212, two SlyA molecules in the asymmetric unit, each dimer completed by space group symmetry

T1 sequence (P40676 whole entry): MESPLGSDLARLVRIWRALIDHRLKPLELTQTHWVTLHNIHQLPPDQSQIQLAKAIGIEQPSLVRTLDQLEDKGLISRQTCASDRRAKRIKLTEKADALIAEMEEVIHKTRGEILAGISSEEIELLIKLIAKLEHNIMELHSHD

O=C(O)c1ccccc1 [benzoate]
Kd [1]: ~40 µM

O=C(O)c1ccccc1O [salicylate]
crystal structure at 2.3 Å; 1H,15N-TROSY NMR; supported by in vitro transcriptio [2]: The crystal structure of the SlyA dimer with salicylate bound at sites I and II was determined

B1: SlyA of Salmonella enterica serovar Typhimurium (His-SlyA) (natural protein)
chain: ESPLGSDLARLVRIWRALIDHRLKPLELTQTHWVTLHNIHQLPPDQSQIQLAKAIGIEQPSLVRTLDQLEDKGLISRQTCASDRRAKRIKLTEKADALIAEMEEVIHKTRGEILAGISSEEIELLIKLIAKLEHNIMELHSHD
notes: SlyA, MarR family transcription factor, Salmonella enterica serovar Typhimurium; the tips of the wings are not seen in the model; Residue numbers in the text are based on an alignment of SlyA orthologs and are not in register with the numbers of the deposited PDB file 3DEU; Strains were built in the ATCC 14028s background; also called SlyASTM; SlyASTm; not shown: 6xHis, N-terminal, kept
stoichiometry N [3]: 2
